# Reference: patent US20080247962A1, “Pharmaceutical Compositions Comprising Higher Primary Aliphatic Alcohols and Hmg Coa Reductase Inhibitor and Process of Preparation Thereof” (PANACEA BIOTEC LTD., priority 2004, published 2008)
# System: Casein-Starch-Induced Hypercholesterolemia in Rabbits
# Assay: Casein-starch-induced hypercholesterolemia in rabbits (serum lipid profile)
# Type: in vivo
# Design: key to LDL-C level: serum LDL-C in mg/dL, mean±S.E.M
# Conditions: for serum total cholesterol level / LDL-C level: mean±S.E.M.; for LDL-C level: in mg/dL (unit assumed)
# Description: Casein-Starch-Induced Hypercholesterolemia in Rabbits
# The observed unexpected synergistic lipid lowering effect of combination of Extract-A and atorvastatin is evidenced by the test conducted in rabbits. Rabbits of either sex were procured from Central Animal House facility; Panacea Biotec Ltd., India. Animals weighing 1.5-2.0 Kg at the time of testing were used. All animals were dosed sequentially by the oral route with Extract-A and/or atorvastatin suspended in 0.5% of carboxymethyl cellulose (CMC). A dosing volume of 2 ml/kg was used for each sequential suspension.
# The fasting serum lipid profile (TC, TGs, LDL-C, HDL-C) was estimated before initiation of the experiment. […] Hypercholesterolemia was induced by feeding rabbits with wheat casein-starch diet (g/kg) containing wheat flour 333, cellulose 300, casein 270, water 20, maize oil 10, and mineral mixture (Kroon et al., 1982) for 60 days. Feed consumption was restricted to 100 g/day per animal. The cholesterol level was estimated every 15 days. After 60 days animals with total cholesterol level >150 mg/dl were randomized to treatment (n=6/group). Thereafter, various doses of Extract-A and/or atorvastatin were administered for another 60 days during which animals were fed with casein-starch diet. Blood samples were collected from fasted rabbits and analyzed for any alteration in serum lipid profile after 60 days of test compound(s) administration.
# All the data are expressed as mean±S.E.M. (Standard Error of Mean). Student t-test was-used to compare the lipid parameters between animals fed with standard and hypercholesterolemic diet. The difference between various drug treated groups was analyzed by ANOVA followed by Dunnett's test. A value of P<0.05 was considered as statistically significant.
# [1] = atorvastatin 2.5 mg/kg p.o., day 0, pre-dose
# [2] = atorvastatin 2.5 mg/kg p.o., day 15, pre-dose
# [3] = atorvastatin 2.5 mg/kg p.o., day 30, pre-dose
# [4] = atorvastatin 2.5 mg/kg p.o., day 60, start of dosing
# [5] = atorvastatin 2.5 mg/kg p.o., day 75 (dosing from day 60)
# [6] = atorvastatin 2.5 mg/kg p.o., day 90 (dosing from day 60)
# [7] = atorvastatin 2.5 mg/kg p.o., day 105 (dosing from day 60)
# [8] = atorvastatin 2.5 mg/kg p.o., day 120 (dosing from day 60)
# [9] = atorvastatin 5 mg/kg p.o., day 0, pre-dose
# [10] = atorvastatin 5 mg/kg p.o., day 15, pre-dose
# [11] = atorvastatin 5 mg/kg p.o., day 30, pre-dose
# [12] = atorvastatin 5 mg/kg p.o., day 60, start of dosing
# [13] = atorvastatin 5 mg/kg p.o., day 75 (dosing from day 60)
# [14] = atorvastatin 5 mg/kg p.o., day 90 (dosing from day 60)
# [15] = atorvastatin 5 mg/kg p.o., day 105 (dosing from day 60)
# [16] = atorvastatin 5 mg/kg p.o., day 120 (dosing from day 60)
# [17] = single agents: Extract-A 100 and 200 mg/kg p.o., atorvastatin 2.5 and 5 mg/kg p.o.
smiles,measurement,setting,value
"CC(C)c1c(C(=O)Nc2ccccc2)c(-c2ccccc2)c(-c2ccc(F)cc2)n1CC[C@@H](O)C[C@@H](O)CC(=O)O [At, atorvastatin]",serum total cholesterol level,[1],56.83 ± 4.84 mg/dL
same,LDL-C level,[1],21.4 ± 8.04
same,serum total cholesterol level,[2],96.00 ± 2.08 mg/dL
same,LDL-C level,[2],61.03 ± 1.87
same,serum total cholesterol level,[3],144.83 ± 6.6 mg/dL
same,LDL-C level,[3],106.6 ± 5.85
same,serum total cholesterol level,[4],204.66 ± 6.58 mg/dL
same,LDL-C level,[4],166.07 ± 4.97
same,serum total cholesterol level,[5],202.5 ± 15.15 mg/dL
same,LDL-C level,[5],165.53 ± 14.81
same,serum total cholesterol level,[6],205.83 ± 13.31 mg/dL
same,LDL-C level,[6],166.47 ± 13.66
same,serum total cholesterol level,[7],201.33 ± 11.49 mg/dL
same,LDL-C level,[7],159.3 ± 12.53
same,serum total cholesterol level,[8],201.16 ± 10.4 mg/dL
same,LDL-C level,[8],158.00 ± 12.22
same,serum total cholesterol level,[9],68.50 ± 5.99 mg/dL
same,LDL-C level,[9],30.33 ± 6.44
same,serum total cholesterol level,[10],101.16 ± 1.88 mg/dL
same,LDL-C level,[10],61.83 ± 1.77
same,serum total cholesterol level,[11],142.16 ± 10.37 mg/dL
same,LDL-C level,[11],104.17 ± 11.76
same,serum total cholesterol level,[12],226.67 ± 9.74 mg/dL
same,LDL-C level,[12],188.67 ± 10.00
same,serum total cholesterol level,[13],213.16 ± 5.69 mg/dL
same,LDL-C level,[13],175.07 ± 5.06
same,serum total cholesterol level,[14],201.83 ± 5.81 mg/dL
same,LDL-C level,[14],161.3 ± 6.04
same,serum total cholesterol level,[15],198.17 ± 6.65 mg/dL
same,LDL-C level,[15],155.17 ± 6.87
same,serum total cholesterol level,[16],195.50 ± 5.31 mg/dL
same,LDL-C level,[16],149.1 ± 4.72
same,LDL-C in comparison to hypercholesterolemic control rabbits,[17],reversed
same,TC in comparison to hypercholesterolemic control rabbits,[17],reversed
